Several values for one entry are separate records, joined by “and”; a condition that tells them apart may be missing. Identical values can stand only once.
System: patients with prior myocardial infarction (CARE study)
Assay: CARE aligned analysis (prospective and case/control design, white males): association of genotypes with pravastatin efficacy (Tables 13, 15)
Assay type: in vivo, human
Method: The data presented in Table 8 based on an association of genotypes with pravastatin efficacy of the CARE samples were further analyzed and presented in Table 13. The further analysis was performed to align the data obtained from the analysis of the CARE samples, which was a prospective study, to the analysis of the WOSCOP samples, which was a case/control study. Table 13 also presents an analysis of the association of genotypes with pravastatin efficacy in the WOSCOPs samples. Relative to the analysis performed on the data presented in Table 8, there are two significant differences to determine if the SNP influenced pravastatin efficacy. Data obtained from the CARE samples were separated by study design into two groups, those in the prospective study design group and those in the case/control study design group. The original care study contained 16 protocol defined cardiovascular disease defined endpoints and 150 other phenotypes. […] The control groups used to compare the data were also divided into two groups, the “all possible” control group and the “cleaner” control group. […] Because the participants in the WOSCOPs trial were all white males, only data obtained from white males in the CARE study were analysed. Data from the “all possible” and “cleaner” controls were compared to data obtained from the cases in the prospective study design while only data from “cleaner” controls were compared to cases in the case/control study design. The data from the case/control cohorts were analysed using conditional logistic regression (as opposed to logistic regression used for the original anaylsis).
The anaylsis was refined as described for both Tables 13 and 14.

[1] = A2M hCV517658, CARE Case/Control, F&NF MI
[2] = ABCA1 hCV2741051, CARE Case/Control, F&NF MI
[3] = ABCA1 hCV2741051, CARE Prospective, F&NF MI
[4] = ABCA1 hCV2741083, CARE Prospective, F&NF MI
[5] = ADAM12 hCV25928135, CARE Case/Control, F&NF MI
[6] = AGTR1 hCV3187716, CARE, Case/Control, F MI/SD/NF MI
[7] = AGTR1 hCV3187716, CARE, Prospective, F MI/SD/NF MI
[8] = ALOX12 hCV1552894, CARE Prospective, F&NF MI
[9] = ALOX12 hCV1552900, CARE Prospective, F&NF MI
[10] = ASAH1 hCV2442143, CARE, Prospective, F MI/SD/NF MI
[11] = C14orf159 hCV25472345, CARE Case/Control, F&NF MI
[12] = C14orf159 hCV25472345, CARE Prospective, F&NF MI
[13] = CAPG hCV15851292, CARE, Case/Control, F MI/SD/NF MI
[14] = CAPN10 hCV25614016, CARE, Case/Control, F MI/SD/NF MI, listed as Pravastatin
[15] = CAPN10 hCV25614016, CARE, Prospective, F MI/SD/NF MI

CC[C@H](C)C(=O)O[C@H]1C[C@H](O)C=C2C=C[C@H](C)[C@H](CC[C@@H](O)C[C@@H](O)CC(=O)O)[C@H]21 [pravastatin]
2 Rare Alleles (%), Pravastatin Patients [1]: (7.6%) | 2 Rare Alleles n/total, Pravastatin Patients [1]: 11/144 and 11/101 | Pravastatin vs placebo odds ratio, 0 rare alleles [1]: 0.55 and 0.53 | Pravastatin vs placebo odds ratio, 1 rare allele [1]: 1.04 and 0.93 | Pravastatin vs placebo odds ratio, 2 rare alleles [1]: 0.47 and 0.38 | 2 Rare Alleles n/total, Pravastatin Patients [2]: 12/93 and 12/64 | Pravastatin vs placebo odds ratio, 0 rare alleles [2]: 0.55 and 0.52 | Pravastatin vs placebo odds ratio, 1 rare allele [2]: 0.98 and 0.82 | Pravastatin vs placebo odds ratio, 2 rare alleles [2]: 1.71 and 1.81 | 2 Rare Alleles n/total, Pravastatin Patients [3]: 12/94 and 12/65 | Pravastatin vs placebo odds ratio, 0 rare alleles [3]: 0.55 and 0.52 | Pravastatin vs placebo odds ratio, 1 rare allele [3]: 0.99 and 0.83 | Pravastatin vs placebo odds ratio, 2 rare alleles [3]: 1.80 and 1.81 | 2 Rare Alleles n/total, Pravastatin Patients (ABCA1 hCV2741083, CARE Case/Control, F&NF MI): 4/22 and 4/18 | 2 Rare Alleles n/total, Pravastatin Patients [4]: 4/23 and 4/19 | Pravastatin vs placebo odds ratio, 0 rare alleles [4]: 0.63 | Pravastatin vs placebo odds ratio, 1 rare allele [4]: 1.52 | Pravastatin vs placebo odds ratio, 2 rare alleles [4]: 2.74 | Pravastatin vs. Placebo Odds Ratio (ABCA1 hCV2741083, Patients with 0 Rare Alleles, CARE Case/Control, F MI/SD/NF MI): 0.60 | Pravastatin vs. Placebo Odds Ratio (ABCA1 hCV2741083, Patients with 0 Rare Alleles, CARE Prospective, F MI/SD/NF MI): 0.59 | Pravastatin vs. Placebo Odds Ratio (ABCA1 hCV2741083, Patients with 1 Rare Allele, CARE Case/Control, F MI/SD/NF MI): 1.53 | Pravastatin vs. Placebo Odds Ratio (ABCA1 hCV2741083, Patients with 1 Rare Allele, CARE Prospective, F MI/SD/NF MI): 1.61 | Pravastatin vs. Placebo Odds Ratio (ABCA1 hCV2741083, Patients with 2 Rare Alleles, CARE Case/Control, F MI/SD/NF MI): 0.71 | Pravastatin vs. Placebo Odds Ratio (ABCA1 hCV2741083, Patients with 2 Rare Alleles, CARE Prospective, F MI/SD/NF MI): 0.53 | 2 Rare Alleles (%), Pravastatin Patients [5]: (17.1%) | 2 Rare Alleles n/total, Pravastatin Patients [5]: 7/58 and 7/41 | Pravastatin vs placebo odds ratio, 2 rare alleles [5]: 0.47 and 0.37 | Pravastatin vs. Placebo Odds Ratio (ADAMTS1 hCV529706, Patients with 0 Rare Alleles, CARE Case/Control, F MI/SD/NF MI): 0.91 | Pravastatin vs. Placebo Odds Ratio (ADAMTS1 hCV529706, Patients with 1 Rare Allele, CARE Case/Control, F MI/SD/NF MI): 0.64 | Pravastatin vs. Placebo Odds Ratio (ADAMTS1 hCV529706, Patients with 2 Rare Alleles, CARE Case/Control, F MI/SD/NF MI): 0.20 | Pravastatin vs. Placebo Odds Ratio (ADAMTS1 hCV529710, Patients with 0 Rare Alleles, CARE Case/Control, F MI/SD/NF MI): 0.91 | Pravastatin vs. Placebo Odds Ratio (ADAMTS1 hCV529710, Patients with 1 Rare Allele, CARE Case/Control, F MI/SD/NF MI): 0.63 | Pravastatin vs. Placebo Odds Ratio (ADAMTS1 hCV529710, Patients with 2 Rare Alleles, CARE Case/Control, F MI/SD/NF MI): 0.20 | 2 rare alleles n/total (%), pravastatin patients [6]: (7.5%) | Pravastatin vs placebo odds ratio, 0 rare alleles [6]: 0.65 | Pravastatin vs placebo odds ratio, 1 rare allele [6]: 1.03 | Pravastatin vs placebo odds ratio, 2 rare alleles [6]: 0.26 | 2 rare alleles n/total (%), pravastatin patients [7]: (7.2%) | Pravastatin vs placebo odds ratio, 0 rare alleles [7]: 0.65 | Pravastatin vs placebo odds ratio, 1 rare allele [7]: 1.02 | Pravastatin vs placebo odds ratio, 2 rare alleles [7]: 0.23 | Pravastatin vs. Placebo Odds Ratio (AGTR1 hCV3187716, Patients with 0 Rare Alleles, CARE Prospective, F MI/SD/NF MI): 0.70 | Pravastatin vs. Placebo Odds Ratio (AGTR1 hCV3187716, Patients with 1 Rare Allele, CARE Prospective, F MI/SD/NF MI): 1.18 | Pravastatin vs. Placebo Odds Ratio (AGTR1 hCV3187716, Patients with 2 Rare Alleles, CARE Prospective, F MI/SD/NF MI): 0.27 | 2 Rare Alleles (%), Pravastatin Patients [8]: (7.6%) | 2 Rare Alleles n/total, Pravastatin Patients [8]: 15/198 | Pravastatin vs placebo odds ratio, 2 rare alleles [8]: 0.38 | 2 Rare Alleles (%), Pravastatin Patients [9]: (7.6%) | 2 Rare Alleles n/total, Pravastatin Patients [9]: 15/198 | Pravastatin vs placebo odds ratio, 2 rare alleles [9]: 0.38 | 2 rare alleles n/total (%), pravastatin patients [10]: (13.2%) | Pravastatin vs placebo odds ratio, 0 rare alleles [10]: 0.42 | Pravastatin vs placebo odds ratio, 1 rare allele [10]: 0.78 | Pravastatin vs placebo odds ratio, 2 rare alleles [10]: 1.16 | 2 Rare Alleles (%), Pravastatin Patients [11]: (5.0%) | 2 Rare Alleles n/total, Pravastatin Patients [11]: 7/140 | Pravastatin vs placebo odds ratio, 2 rare alleles [11]: 0.30 | 2 Rare Alleles (%), Pravastatin Patients [12]: (5.0%) | 2 Rare Alleles n/total, Pravastatin Patients [12]: 7/140 | Pravastatin vs placebo odds ratio, 2 rare alleles [12]: 0.30 | 2 rare alleles n/total (%), pravastatin patients [13]: (21.4%) | Pravastatin vs placebo odds ratio, 0 rare alleles [13]: 0.81 | Pravastatin vs placebo odds ratio, 1 rare allele [13]: 0.37 | Pravastatin vs placebo odds ratio, 2 rare alleles [13]: 5.35 | Pravastatin vs placebo odds ratio, 2 rare alleles (CAPN10 hCV25614016, CARE, Case/Control, F MI/SD/NF MI): 0.90 | Pravastatin vs placebo odds ratio, 0 rare alleles [14]: 0.62 and 0.56 | Pravastatin vs placebo odds ratio, 1 rare allele [14]: 1.58 and 1.43 | Pravastatin vs placebo odds ratio, 2 rare alleles [14]: 1.07 | 2 rare alleles n/total (%), pravastatin patients [15]: (9.1%) | Pravastatin vs placebo odds ratio, 0 rare alleles [15]: 0.63 and 0.56 | Pravastatin vs placebo odds ratio, 1 rare allele [15]: 1.60 and 1.42

Source: patent US9932637B2, “Genetic polymorphisms associated with cardiovascular disorders and drug response, methods of detection and uses thereof” (CELERA CORPORATION, priority 2003, dated 2018)
